According to US10307471B2, “Immunity inducer for saccharide antigens” (NATIONAL INSTITUTE OF ADVANCED INDUSTRIAL SCIENCE AND …, priority 2013, dated 2019):
“Also recorded” adds a separate entry of the source.

Legend:
glycoprotein (Fetuin) = assay: Serum antibody titer to glycoprotein (Fetuin) after immunity induction (ELISA); format: in vivo; conditions: mouse serum 3 and 7 days after final immunization vs unimmunized; Fetuin-a used as antigen for c1
Description: (§1) Each immunogen was subcutaneously immunized on the first day, and additional immunization was abdominally conducted after two weeks. The blood was collected after 3 days and 7 days from the additional immunization to prepare serums. Antibody titers in the obtained serums were evaluated by ELISA. An immunogen and a glycoprotein containing an objective carbohydrate were used as solid-phased antigens by ELISA, and each was evaluated as an antibody titer to the immunogen and an antibody titer to the objective carbohydrate (FIGS. 1 to 4).
In order to evaluate subclasses (IgM and IgG) of produced immunoglobulin, evaluation was conducted using antibodies specific to IgM and IgG as secondary antibodies. An antibody titer was evaluated as an activity of peroxidase that is a labeling enzyme of a secondary antibody. TMB was used as a chromogenic substrate of peroxidase, and an intensity of an absorbance at 450 nm after adding 2 N-sulfuric acid after the reaction was evaluated. FIGS. 1 to 3 illustrate antibody titers of IgM subclass, and FIG. 4 illustrates antibody titers of IgG subclass. […]
Each of the immunity inducers was subcutaneously immunized and additionally abdominally immunized after 2 weeks. […] The antibody titer in the obtained serum was evaluated by ELISA method. In ELISA method, using two types of antigens of an immunogen and a glycoprotein (Fetuin) containing 6′-Sialyl-LacNAc, 3′-Sialyl-LacNAc and LacNAc structures, they were evaluated as an antibody titer to the immunogen and an antibody titer to the objective carbohydrate, respectively.
In addition, in order to evaluate subclasses (IgM and IgG) of immunoglobulin, an antibody specific to IgM and IgG was used as a secondary antibody to evaluate the subclasses. The antibody titer was evaluated as an activity of peroxidase that is a labeling enzyme of a secondary antibody. TMB was used for a chromogenic substrate of peroxidase, and an intensity of an absorbance at 450 nm after adding 2 N-sulfuric acid after the reaction was evaluated. […]

immunogen = assay: Serum antibody titer to the immunogen after immunity induction (ELISA); format: in vivo, mouse; conditions: for serum antibody titer to the immunogen, IgM subclass: mouse serum 3 and 7 days after final immunization vs unimmunized, liposome method with Lipid-A, ELISA; for serum antibody titer to the immunogen, IgG subclass: mouse serum after final immunization (7 days where stated) vs unimmunized, only primary additional immunization; for antibody titer in the IgG subclass: antigen not specified, data not shown
Description: as §1
In order to evaluate subclasses (IgM and IgG) of produced immunoglobulin, evaluation was conducted using antibodies specific to IgM and IgG as secondary antibodies. An antibody titer was evaluated as an activity of peroxidase that is a labeling enzyme of a secondary antibody. TMB was used as a chromogenic substrate of peroxidase, and an intensity of an absorbance at 450 nm after adding 2 N-sulfuric acid after the reaction was evaluated. FIGS. 1 to 3 illustrate antibody titers of IgM subclass, and FIG. 4 illustrates antibody titers of IgG subclass.
Next, each of racemic forms of various immunity inducers (a1, b1 and c1) synthesized in Examples (1-1), (1-2) and (1-3) was dissolved into s lipid containing cholesterol and phospholipid with an adjuvant (Lipid-A), and immunized a mouse being a host generally producing a monoclonal antibody (C3H/HeN strain) in a liposome method (Eur. J. Immunol., 16, 951-956, 1986) to evaluate the immunity inducing ability.
Each of the immunity inducers was subcutaneously immunized and additionally abdominally immunized after 2 weeks. After the additional immunization, the blood was collected after 3 days and 7 days, and the serum was examined. The antibody titer in the obtained serum was evaluated by ELISA method. In ELISA method, using two types of antigens of an immunogen and a glycoprotein (Fetuin) containing 6′-Sialyl-LacNAc, 3′-Sialyl-LacNAc and LacNAc structures, they were evaluated as an antibody titer to the immunogen and an antibody titer to the objective carbohydrate, respectively.
In addition, in order to evaluate subclasses (IgM and IgG) of immunoglobulin, an antibody specific to IgM and IgG was used as a secondary antibody to evaluate the subclasses. The antibody titer was evaluated as an activity of peroxidase that is a labeling enzyme of a secondary antibody. TMB was used for a chromogenic substrate of peroxidase, and an intensity of an absorbance at 450 nm after adding 2 N-sulfuric acid after the reaction was evaluated.
Each of the immunity inducers was subcutaneously immunized on the first day, and the carrier compound was additionally abdominally immunized after 2 weeks. After the additional immunization, the blood was collected after 3 days and 7 days to prepare serums. Antibody titers of the obtained serums were evaluated by ELISA method. In ELISA method, using two types of antigens of an immunogen and a glycoprotein (Fetuin) containing a 6′-Sialyl-LacNAc structure, they were evaluated as an antibody titer to the immunogen and an antibody titer to the objective sugar chain, respectively. In addition, in order to evaluate subclasses (IgM and IgG) of produced immunoglobulin, an antibody specific to IgM and IgG was used as the secondary antibody to evaluate the subclasses. The antibody titer was evaluated as an activity of peroxidase that is a labeling enzyme of the secondary antibody. TMB was used for a chromogenic substrate of peroxidase, and an intensity of an absorbance at 450 nm after adding 2 N-sulfuric acid after the reaction was evaluated. […] Among the evaluated compounds, the antibody titer of a2 was the lowest, and the activity of a3-1 was the highest in the examined compounds.

glycoprotein (HL60) = assay: Serum antibody titer to HL60 glycoprotein after immunity induction (ELISA); format: in vivo, mouse
Description: FIG. 9 illustrates serum antibody titers after immunity inductions with sLe^X-C12L and Le^X-C12L: after immunizing a mouse using each of the sLe^X-C12L and Le^X-C12L compounds as an immunity inducer, an antibody titer of each subclass (IgM and IgG) of immunoglobulin in the serum was evaluated by ELISA. A and B show serum antibody titers of a mouse immunized with sLe^X-C12L, C and D show serum antibody titers of a mouse immunized with Le^X-C12. A and C: Evaluations on an immunogen used as an antigen by ELISA. B: Evaluation on a cell extract (HL60) containing a glycoprotein including an epitope of a target carbohydrate used as an antigen by ELISA. […]
as §1, with “The blood was collected after 3 days and 7 days from the additional immunization to prepare serums.” left out
In order to evaluate subclasses (IgM and IgG) of produced immunoglobulin, evaluation was conducted using antibodies specific to IgM and IgG as secondary antibodies. An antibody titer was evaluated as an activity of peroxidase that is a labeling enzyme of a secondary antibody. […]

[1] = system: glycoprotein (Fetuin) containing a 6′-Sialyl-LacNAc (CDw75) carbohydrate structure; conditions: Non Patent Literature 8, cited from earlier work

Row | Molecule | serum antibody titer to glycoprotein (Fetuin), IgM subclass (glycoprotein (Fetuin)) | serum antibody titer to the immunogen, IgM subclass (immunogen) | serum antibody titer to the immunogen, IgG subclass (immunogen) | antibody titer in the IgG subclass (immunogen) | other results
1 | CCCCCCCCCCC(CO[C@@H]1OC(CO)[C@@H](O[C@@H]2OC(CO[C@]3(C(=O)O)CC(O)[C@@H](NC(C)=O)C([C@H](O)[C@H](O)CO)O3)[C@H](O)C(O)C2O)C(O)C1NC(C)=O)NC(C)=O (stereo partly drawn) [a2, reference compound] | significant increases of antibody titers | significant increases of antibody titers |  |  | rank of antibody titer / activity among the evaluated compounds (immunogen; a1, a2, a3-1, a3-2, a3-3 compared, IgM subclass): lowest
2 | CCCCCCCCCCCCC/C=C/[C@@H](O)C(CO[C@@H]1OC(CO)[C@@H](O[C@@H]2OC(CO)[C@H](O[C@H]3OC(CO)[C@H](O)C(O[C@@H]4OC(CO)[C@H](O)C(O)C4NC(C)=O)C3O)C(O)C2O)C(O)C1O)NC(=O)CCCCCCCCCCCCCCCCCCCCCCC (stereo partly drawn) [Globoside, GalNAcβ1,3Galα1,4Galβ1,4Glcβ1-Cer, reference compound] |  | significantly increased | not confirmed |  | serum antibody titer to the immunogen, IgM subclass (immunogen; listed as globoside): significant increase of the antibody titer
3 | CCCCCCCCCCCCCCCCCCCCCCCC(=O)N[C@@H](CCCCCCCCCC)CO[C@@H]1O[C@H](CO)[C@@H](O[C@@H]2O[C@H](CO)[C@H](O)[C@H](O[C@]3(C(=O)O)C[C@H](O)[C@@H](NC(C)=O)[C@H]([C@H](O)[C@H](O)CO)O3)[C@H]2O)[C@H](O[C@@H]2O[C@@H](C)[C@@H](O)[C@@H](O)[C@@H]2O)[C@H]1NC(C)=O [sLe^X-C12L, Siaα2,3Galβ1,4(Fucα1,3)GlcNAcβ1-C12L] |  | significant increases of antibody titers | tendency of an increase of an antibody titer |  | serum antibody titer to glycoprotein (HL60), IgG subclass (glycoprotein (HL60); only primary additional immunization): significant increase of an antibody titer; serum antibody titer to glycoprotein (HL60), IgM subclass (glycoprotein (HL60); serums after 3 days and 7 days from the immunization): significant increases of antibody titers
4 | Siaα2,3-Galβ1,4GlcNAcβ1-CerA [b1] | significantly increased; also recorded: significant increases of antibody titers | significantly increased; also recorded: significant increases of antibody titers |  | not observed | 
5 | phosphatidylethanolamine |  |  |  |  | appearance ratio of positive clones, conventional technique ([1]; 581 wells): 1.3%; positive clones, conventional technique ([1]; out of selected 581 wells): 8 wells
6 | CCCCCCCCCCCCCCCCCC(=O)NC(CCCCCCCCCC)CO[C@@H]1OC(CO)[C@@H](O[C@@H]2OC(CO[C@]3(C(=O)O)CC(O)[C@@H](NC(C)=O)C([C@H](O)[C@H](O)CO)O3)[C@H](O)C(O)C2O)C(O)C1NC(C)=O (stereo partly drawn) [a1, Siaα2,6Galβ1,4GlcNAcβ1-CerA] | significantly increased; also recorded: significant increases of antibody titers | significantly increased; also recorded: significant increases of antibody titers |  | not observed | 
